From the NIST ThermoML archive (doi:10.1016/j.jct.2005.10.004)
Several values for one entry are separate records, joined by “and”; a condition that tells them apart may be missing. Equal entries are not always repeated. ± gives the expanded uncertainty stated by the source.

Conditions: Liquid, Buoyancy - hydrostatic balance with magnetic suspension - one sinker

N#N [nitrogen]
Conditions | mass density
249.96 K, 5023.9 kPa | 69.8983 ± 0.016 kg/m3
249.96 K, 5024.2 kPa | 69.9018 ± 0.016 kg/m3
249.96 K, 10070 kPa | 141.612 ± 0.031 kg/m3
249.96 K, 15267 kPa | 211.548 ± 0.045 kg/m3
249.96 K, 15270 kPa | 211.579 ± 0.045 kg/m3 and 211.588 ± 0.045 kg/m3
249.96 K, 19857 kPa | 266.561 ± 0.056 kg/m3
250 K, 4994.5 kPa | 69.4686 ± 0.016 kg/m3
274.97 K, 10066 kPa | 125.016 ± 0.027 kg/m3 and 125.014 ± 0.027 kg/m3
274.97 K, 19871 kPa | 235.319 ± 0.05 kg/m3
274.97 K, 19875 kPa | 235.358 ± 0.05 kg/m3
299.97 K, 10974 kPa | 122.253 ± 0.027 kg/m3
299.97 K, 13855 kPa | 152.56 ± 0.034 kg/m3 and 152.561 ± 0.034 kg/m3
299.97 K, 16780 kPa | 181.982 ± 0.04 kg/m3
299.98 K, 16788 kPa | 182.05 ± 0.04 kg/m3
399.99 K, 10101 kPa | 81.9701 ± 0.018 kg/m3
399.99 K, 14807 kPa | 117.441 ± 0.025 kg/m3
399.99 K, 17250 kPa | 135.043 ± 0.029 kg/m3
400 K, 7435.4 kPa | 61.0376 ± 0.014 kg/m3
400 K, 10100 kPa | 81.9663 ± 0.018 kg/m3
400 K, 19953 kPa | 153.853 ± 0.033 kg/m3
400 K, 19959 kPa | 153.899 ± 0.033 kg/m3
